Laboratory results: paper PMC5584254, “Identification of novel small molecule Beclin 1 mimetics activating autophagy” (Oncotarget, 2017)
Structures can show the parent of a compound that is named as a salt.

How the values were obtained:
Bcl-xL-Beclin 1 complex [1] = target: T1, Bcl-xL-Beclin 1 complex (Homo sapiens, UniProt Q07817); test: FP-based high-throughput screening, primary screen; assay type: binding; conditions: first screen; 40 μM compound, 2.5 μM Bcl-xL, 400 nM 20-mer
T1 construct: made in house
T1 sequence (Q07817 whole entry, one chain of several): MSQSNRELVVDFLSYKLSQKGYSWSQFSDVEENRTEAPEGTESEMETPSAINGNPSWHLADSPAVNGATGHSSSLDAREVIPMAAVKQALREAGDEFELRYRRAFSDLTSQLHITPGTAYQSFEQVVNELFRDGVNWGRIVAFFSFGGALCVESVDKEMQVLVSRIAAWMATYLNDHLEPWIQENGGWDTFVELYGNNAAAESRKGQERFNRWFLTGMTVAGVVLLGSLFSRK
Text: Next, we optimized the FP competitive binding assay in a 384-well microplate format and carried out a small-scale HTS using a small library, which contains 6580 compounds from Prestwick, Microsource and our in-house CMLD library. Then, the FP assay was optimized and applied in screening the larger Chembridge library consisting of 43736 compounds. HTS cascades are shown in Supplementary Figure 1A–1B. […] All chemical structures can be found on the PubChem website (http://pubchem.ncbi.nlm.nih.gov/).
(§1) Then the plates were read by Envision (Perkin Elmer, Waltham, MA). […] The hits were selected from library stocks and reconfirmed in a concentration response FP assay (6 doses ranging from 5 μM to 160 μM or 8 doses ranging from 0.5 μM to 60 μM).

Bcl-xL-Beclin 1 complex [2] = target: T1, Bcl-xL-Beclin 1 complex; test: Concentration response FP reconfirmation of HTS hits; assay type: binding; conditions: hits of first screen; for inhibition at 5 µM: read-out: Dose-response (% Inhibition) 5 μM; for inhibition at 10 µM: read-out: Dose-response (% Inhibition) 10 μM; for inhibition at 20 µM: read-out: Dose-response (% Inhibition) 20 μM; for inhibition at 40 µM: read-out: Dose-response (% Inhibition) 40 μM; for inhibition at 80 µM: read-out: Dose-response (% Inhibition) 80 μM; for inhibition at 160 µM: read-out: Dose-response (% Inhibition) 160 μM
Experimental: as §1

Bcl-xL protein = target: T2, Bcl-xL protein (Homo sapiens, UniProt Q07817); test: Surface plasmon resonance assay, immobilized Bcl-xL; assay type: binding; conditions: SPR; 10 μM compound; Bcl-xL immobilized 10000 RU
T2 construct: made in house
T2 sequence (Q07817 whole entry): as the sequence (Q07817 whole entry, one chain of several) above
Experimental: The surface plasmon resonance experiments were performed using a Biacore 3000 (GE Healthcare Pittsburgh, PA) equipped with a research-grade CM5 sensor chip. The ligand (Bcl-xL) was immobilized using amine-coupling chemistry. The surfaces of flow cells on a Biacore sensor chip CM5 were activated for 7 min with a 1:1 mixture of 0.1 M NHS (N-hydroxysuccinimide) and 0.1 M EDC (3-(N,N-dimethylamino) propyl-N-ethylcarbodiimide) at a flow rate of 5 μL/min. The ligand (Bcl-xL) at a concentration of 180 μg/mL in 10 mM sodium acetate, pH 4.5, was immobilized at a density of about 10000 RU on flow cell 2; the ligand (SUMO-Bcl-2, 37.5 kDa, > 90% pure based on SDS–PAGE) at a concentration of 44 μg/ml in 10 mM sodium acetate, pH 4.5, was immobilized at a density of 10000 RU on flow cell 3; flow cell 1 was left blank to serve as a reference surface. All the surfaces were blocked with a 7 min injection of 1 M ethanolamine, pH 8.0.
For kinetic analysis, a concentration series of analyte were injected over the flow cells at a flow rate of 60 μL/min at 20 °C. The complex was allowed to associate and dissociate for 120 and 180 s, respectively. For binding studies, analyte (or test compound) was injected over the two flow cells in duplicate at indicated concentration at a flow rate of 60 μL/min at 20 °C. The running buffer consisted of 20 mM HEPES, 150 mM NaCl, 3 mM EDTA, 1 mM DTT, 0.05% P20, 5% DMSO, pH 7.4. The complex was allowed to associate and dissociate for 120 and 180 s, respectively. The buffer samples containing a range of 4–6% DMSO were injected at the beginning, used for solvent correction. The surfaces were regenerated between binding cycles with a 5 s injection of 5 mM NaOH for compounds and 10 mM Glycine pH 2.5 for 20-mer.
All measurements were taken with flow cell 1 as a reference (i.e. sensorgram depicts “2–1 correction”) and corrected for DMSO bulk differences via the calibration curves. To obtain kinetic rate constants (Ka and Kd), corrected response data were fit to a simple 1:1 interaction model using local fit (includes correction for mass transport limitations) available within Biaevaluation 3.1 software or Scrubber2 software. The equilibrium dissociation constant (KD) was determined by Kd/Ka.

[3] = system: PC-3 and PC-3a prostate cancer cells; test: Western blot of autophagy markers (LC3 conversion, P62); assay type: cell-based, Human; conditions: 24 h treatment
Experimental: Figure 5 Acridine compounds induce autophagy in prostate cancer cells (A) LC3-II conversion in western blot analysis indicated the activity of autophagy. Cells were treated with DMSO or compounds for 24 h, and then lysed and processed for western blot analysis of LC3. (–)G and EBSS were used as positive controls. […] Yellow puncta indicate autophagosome (overlay of red and green fluorescence); red puncta indicate autolysosome (due to green fluorescence quenching at the acidic condition). Cells expressing RFP-GFP-LC3 were treated with compounds A13, A15 or A21 at indicated concentration for 24 h.
Figure 8 Acridine compounds induce autophagy in PC-3 and PC-3a cancer cells LC3-II conversion in western blot analysis indicated the activity of autophagy. Cells were treated with DMSO or compounds for 24 h, and then lysed and processed for western blot analysis of LC3. (–)G and EBSS were used as positive controls.
Human prostate cancer cell lines PC-3 and DU145, were purchased from American Type Culture Collection (ATCC) and used within 50 passages. PC-3a is a derivative of PC-3 that is resistant to chemo/radiotherapy, established in our lab and confirmed by genotyping. All cells were maintained in DMEM (Mediatech, Manassas, VA) supplemented with 10% fetal bovine serum (FBS) (Sigma-Aldrich, St. Louis, MO), 1% Glutamine (Mediatech, Manassas, VA), 1% antibiotics (Mediatech, Manassas, VA). Compounds for primary FP-based HTS screening were from Prestwick, Microsource, University of Kansas Center of Excellence in Chemical Methodologies & Library Development (KU CMLD, Lawrence, KS), and Chembridge libraries. Compounds for MTT and SPR validation experiment were purchased from Microsource (Gaylordsville, CT) and Hit2lead Company (San Diego, CA). Acridine analogues, compound 1–6, were from our in-house library (provided by Specialized Chemistry Center, University of Kansas, Lawrence, KS); compound 7–17 were synthesized as described in supplementary information. (–)-Gossypol was isolated from racemic gossypol as we previously described. ABT-263 and DMSO were purchased from Sigma. MTT-based cytotoxicity assay and western blot analysis was carried out according to our previous publications. The primary antibodies used were LC3B (#2775) (Cell signaling Technology, Danvers, MA) and β-actin (A5441) (Sigma).

Primary Screen mP (Bcl-xL-Beclin 1 complex [1]) [mP]	inhibition at 40 µM (Bcl-xL-Beclin 1 complex [1]) [%]	inhibition at 5 µM (Bcl-xL-Beclin 1 complex [2]) [%]	inhibition at 10 µM (Bcl-xL-Beclin 1 complex [2]) [%]	inhibition at 20 µM (Bcl-xL-Beclin 1 complex [2]) [%]	inhibition at 40 µM (Bcl-xL-Beclin 1 complex [2]) [%]	inhibition at 80 µM (Bcl-xL-Beclin 1 complex [2]) [%]	inhibition at 160 µM (Bcl-xL-Beclin 1 complex [2]) [%]	binding level to Bcl-xL protein in SPR (Bcl-xL protein)	Structure (SMILES)	LC3-I to LC3-II conversion [3]
83.5	37.9	-0.5	6.2	14.9	20	47.7	60.9	could bind to Bcl-xL	CCOc1ccc2nc3cc(N)ccc3c(N)c2c1 [Compound A15, ETHACRIDINE LACTATE]	Increased level of LC3-II
-3.2	102	55.9	65.8	101	102	102	102	could bind to Bcl-xL	Nc1ccc2cc3ccc(N)cc3nc2c1 [Compound A13, PROFLAVINE HEMISULFATE]	Increased level of LC3-II
72.2	48.2	14.5	26.7	38.6	47.9	58.3	66.3	could bind to Bcl-xL	CCN(CC)CCCC(C)Nc1c2ccc(Cl)cc2nc2ccc(OC)cc12 (stereo not drawn) [Compound A21, QUINACRINE HYDROCHLORIDE]	Increased level of LC3-II
